Source: publication PMC11809919, “Quinoxaline-based anti-schistosomal compounds have potent anti-plasmodial activity” (PLOS Pathogens, 2025)
Values joined by “and” are separate entries in the source; they are usually repeats but may differ in a detail not shown here. Equal entries are not always repeated. Where two headings read alike, the source gives them in different places.

How the values were obtained:
[1] = system: P. falciparum Dd2; assay: Compound dose-response assay (72 h, SYBR Green I), Dd2; type: cell-based, Plasmodium falciparum; details: for Selectivity index HepG2/Dd2: HepG2 72 h CC50 / Pf Dd2 IC50; for IC50: Plasmodium falciparum, DD2, 72 h, 72 h, asexual blood stage
Protocol: (§1) P. falciparum parasites were cultured at 3% hematocrit in RPMI 1640 (Gibco) medium consisting of 0.5% Albumax II (Gibco), 25 mM HEPES (Sigma), 0.21% sodium bicarbonate, 1x GlutaMAX (Gibco), 25 μg/mL gentamicin (Gibco). A tri-gas mixture (1% O2, 3% CO2, and 96% N2) was used for parasite cultures. Parasites were synchronized using a sorbitol and Percoll density gradient method. The following parasite strains were used: 3D7, Dd2 (MR4, MRA-156, T. Wellems), GB4 (MR4, MRA-925, T. Wellems), UG659 (P. Rosenthal), Tanzania (MR4, MRA-1169, Michal Fried), Cam/PH0212C (R. Fairhurst), and Cam3.II/ PH0306-C (R. Fairhurst). Transfection was performed using ring-stage parasites (5–8% parasitemia) using a Gene Pulser Xcell (Biorad) electroporator.
(§2) Compound dose-response assays were performed in flat-bottom 96-well plates. Tightly synchronized ring-stage parasites were diluted to 1% parasitemia at 2% hematocrit, and incubated with a two-fold serial dilution of compounds in complete medium. Untreated parasites or uninfected RBCs were included in the assay plate as controls. Parasite growth was assessed after 72 h by lysing parasites using 2× lysis buffer consisting of 10 mM Tris-HCl, 5 mM EDTA, 0.1% w/v saponin, and 1% v/v Triton X-100, supplemented with 2× SYBR Green I (Molecular Probes). The fluorescence was measured using a FluorStar Omega v5.11 plate reader. IC50 analysis was performed using GraphPad Prism v9, and statistical significance was determined by a two-sided Mann-Whitney U test. All assays were performed in technical duplicate with at least three biological replicates, as noted in the figure legends.

[2] = system: P. falciparum 3D7; assay: Compound dose-response assay (72 h, SYBR Green I), 3D7; type: cell-based, Plasmodium falciparum; details: for Change of anti-plasmodial activity relative to compound 22: 3D7 and Dd2; for IC50: 72 h, asexual blood stage; for Selectivity index HepG2/3D7: HepG2 72 h CC50 / Pf 3D7 IC50
Protocol: as §1, §2

[3] = system: HepG2 cells; design: method as in Padalino et al. [13]; details: ref Padalino et al. [13], cited from earlier work
[4] = system: S. mansoni schistosomula; design: method as in Padalino et al. [13]; details: ref Padalino et al. [13], cited from earlier work
[5] = system: Dd2-Polδ clones C22-1.1 and C22-2.1; assay: Dose-response assay on compound 22-selected clones (cross-resistance); type: cell-based, Plasmodium falciparum
Protocol: Resistance selections were performed using a mutator parasite line Dd2-Polδ with an elevated mutation rate. Three independent flasks with either 1×10^8 or 1×10^9 parasites each were treated with 5×IC50, and parasite death was monitored by microscopy (Giemsa staining). […] After eight days, compounds were removed from the media and the media was changed on alternate days. […] For recrudescent cultures, compound susceptibility was determined by dose-response assays. Parasite clones were obtained by limiting dilution and harvested for genomic DNA extraction, followed by whole-genome sequencing.
as §2

[6] = system: 3D7 parasites (hemoglobin, 'free' heme, hemozoin); assay: Cellular heme fractionation assay; type: cell-based, Plasmodium falciparum; details: 3D7, 0.5 – 2.5× IC50, 30 h
From the text: Cellular heme fractionation to measure the amounts of different heme species was thereafter conducted as previously described. […] Pellets were then resuspended in 1× PBS (pH 7.5) and an aliquot of the trophozoite suspension used to quantify the total number of trophozoites isolated using flow cytometry. Contents of the remaining trophozoite pellet were then released by hypotonic lysis and sonication. […] The UV−visible spectrum of each heme fraction as an Fe(III)heme−pyridine complex was measured using a multi-well plate reader (Spectramax 340PC; Molecular Devices). The total amount of each heme species was quantified using a heme standard curve whereby the mass of each heme-Fe species per trophozoite (fg/cell) was calculated by dividing the total amount of each heme species by the corresponding number of parasites in that fraction as determined by flow cytometry. Statistical comparisons and analyses for trends were made on GraphPad Prism version 10 using Students’ t-test with Welch correction. The total amount of heme obtained from each fraction was quantified using a standard curve prepared from a 100 μg/mL heme standard solution of hematin (porcine) in 0.3 M NaOH. Serial dilutions of this standard were carried out in a 96-well plate with 100 μL 0.3 M NaOH as a blank. […] The visible spectra of heme as Fe(III)heme-pyridine complex were recorded in a multi-well plate reader. The amount of heme Fe per cell was calculated by dividing the total heme Fe in each fraction by the number of cells determined in each fraction.

[7] = system: β-hematin formation; assay: Detergent-based β-hematin inhibition assay; type: biochemical; details: cell-free, NP40 detergent, pH 4.8
Protocol: From this stock 40 μL of each was delivered to wells in the final column (column 12) of a 96-well plate together with distilled water (120 μL) and NP40 detergent (305.5 mM, 40 μL). […] A serial dilution of each compound (100 μL) from column 12 to column 2 was carried out. Column 1 served as a blank with 0 mM sample. A 25 mM hematin stock solution was prepared by sonicating hemin in DMSO for one minute and then suspending 179 μL of this in a 1 M acetate buffer (20 mL, pH 4.8). […] The plate was covered and incubated at 37°C for 5 h. […] Acetone (60 μL) was then added to assist with hematin dispersion. The UV-vis absorbance of the plate wells was read on a SpectraMax […] plate reader.

[8] = system: P. falciparum PfQRP1 mutants (G1612V, D1863Y, D1829*, D1829A); assay: Dose-response assay on CRISPR-edited PfQRP1 mutant lines; type: cell-based, Plasmodium falciparum
Protocol: To generate the PfQRP1 hydrolase mutants (D1829stop and D1829A), the pDC2-Cas9-gRNA-donor plasmid was transfected into the P. falciparum Dd2 line. Donor plasmid (50 µg) containing the sgRNA ([…]) and a pfqrp1 homology region of 672 bp, centred on the D1829 residue, was used for transfection. Transfectants were selected using 5 nM WR99210 (a potent inhibitor of P. falciparum dihydrofolate reductase (DHFR) provided by Jacobus Pharmaceuticals) for 8 days, followed by culturing without drug until parasites were observed. Parasite clones were obtained using limiting dilution cloning. Confirmation of gene editing was performed with allele-specific PCR (forward primer […] and reverse primer […]) and Sanger sequencing using an internal primer ([…]).
as §2

[9] = Plasmodium falciparum, 3D7, 72 h
[10] = HepG2, 24 h, read-out: 24 h CC50
[11] = HepG2, 72 h, read-out: 72 h CC50
[12] = 72 h, read-out: 72 h -phenotype EC50
[13] = average of phenotype and motility, read-out: Average EC50
[14] = read-out: βH Inhibition IC50, individual biological replicate

| Molecule | Selectivity index HepG2/Dd2 [1] | IC50 [1] [µM] | Change of anti-plasmodial activity relative to compound 22 [2] | IC50 [2] [µM] | Selectivity index HepG2/3D7 [2] | IC50 [2, 9] [µM] | CC50 [3, 10] [µM] | CC50 [3, 11] [µM] | EC50 [4, 12] [µM] | EC50 [4, 13] [µM] | EC50 ([4]; read-out: Motility EC50) [µM] | Shift in IC50 in compound 22-selected clones versus parental Dd2-Polδ [5] | Levels of 'free' heme or hemozoin relative to untreated controls [6] | IC50 ([7]; mean of two biological replicates, listed as chloroquine, read-out: βH Inhibition IC50, mean) [µM] | IC50 ([7]; mean of two biological replicates, read-out: βH Inhibition IC50, mean) [µM] | IC50 [7, 14] | Loss in potency ([2]; relative to compound 22) | Effect of D1829 stop / D1829A PfQRP1 mutation on IC50 [8] |
| --- | --- | --- | --- | --- | --- | --- | --- | --- | --- | --- | --- | --- | --- | --- | --- | --- | --- | --- |
| O=C(Nc1ccc2nc(Nc3ccc(Cl)c(Cl)c3)c(Nc3ccc(Cl)c(Cl)c3)nc2c1)c1ccco1 [Compound 22f] | 14.9 | 0.382 | greatly diminished activity | 0.287 | 19.8 | 0.287 ± 0.0033 | 14.8 | 5.69 | 1.91 | 1.95 | 2 | – | – | – | – | – | – | – |
| O=[N+]([O-])c1ccc2nc(Nc3cccc(Cl)c3)c(Nc3cccc(Cl)c3)nc2c1 [Compound 25] | 9.2 | 0.0634 | – | – | 10.1 | 0.0577 | 6.76 | 0.58 | 1.22 | 1.26 | 1.3 | – | – | – | – | – | – | – |
| CNC(=O)CNc1cnc2ccc(-c3ccc(OC)c(OC)c3)cc2n1 [BQR695, 2-[[7-(3,4-dimethoxyphenyl)quinoxalin-2-yl]amino]-N-methylacetamide, reference compound] | – | – | – | – | – | – | – | – | – | – | – | no cross resistance | – | – | – | – | – | – |
| CCN(CC)CCCC(C)Nc1ccnc2cc(Cl)ccc12 (stereo not shown) [Chloroquine, chloroquine] | – | – | – | – | – | – | – | – | – | – | – | – | significant concentration-dependent increases | 16 | 15.6 | 16.7 µM and 14.5 µM | – | – |
| C[C@H]1Cc2c([nH]c3cc(Cl)c(F)cc23)[C@@]2(N1)C(=O)Nc1ccc(Cl)cc12 [KAE609] | – | – | – | – | – | – | – | – | – | – | – | – | – | – | – | > 500 µM | – | – |
| CC(=O)Nc1ccc2nc(Nc3ccc(Cl)c(Cl)c3)c(Nc3ccc(Cl)c(Cl)c3)nc2c1 [Compound 22c] | 25.4 | 0.181 | greatly diminished activity | – | 58.1 | 0.079 | 8.6 | 4.59 | 3.04 | 2.91 | 2.79 | – | – | – | – | – | – | – |
| O=[N+]([O-])c1ccc2nc(Nc3ccc(Cl)cc3)c(Nc3ccc(Cl)cc3)nc2c1 [Compound 26] | 3.5 | 0.0368 | – | – | 4.3 | 0.0299 | 13.1 | 0.13 | 0.42 | 0.41 | 0.39 | – | – | – | – | – | – | – |
| O=[N+]([O-])c1ccc2nc(Nc3ccc(F)c(C(F)(F)F)c3)c(Nc3ccc(F)c(C(F)(F)F)c3)nc2c1 [Compound 32] | 24.1 | 0.0278 | – | – | 40.4 | 0.0166 | 7.75 | 0.67 | 0.89 | 0.72 | 0.54 | modest shift with one of the compound 22-resistant clones | – | – | – | – | – | – |
| O=[N+]([O-])c1ccc2nc(NCCc3ccccc3)c(NCCc3ccccc3)nc2c1 [Compound 37] | 17.1 | 0.264 | – | – | 20.5 | 0.22 | 4.4 | 4.52 | 2.2 | 1.84 | 1.47 | – | – | – | – | – | ten-fold | – |
| COc1ccc(Nc2nc3ccc([N+](=O)[O-])cc3nc2Nc2ccc(OC)c(C(F)(F)F)c2)cc1C(F)(F)F [Compound 35] | 3.8 | 0.112 | – | – | 7.4 | 0.0578 | 5.64 | 0.43 | 0.63 | 0.66 | 0.69 | modest shift with one of the compound 22-resistant clones | – | – | – | – | – | – |
| 2-N,3-N-bis[3-(trifluoromethyl)phenyl]quinoxaline-2,3-diamine [MMV665794] | – | – | – | – | – | – | – | – | – | – | – | – | no significant changes | – | – | 257 µM and 217 µM | – | less potent |
| O=[N+]([O-])c1ccc2nc(Nc3cccc(C(F)(F)F)c3)c(Nc3cccc(C(F)(F)F)c3)nc2c1 [Compound 30] | 40.9 | 0.022 | – | – | 67.2 | 0.0134 | 5.85 | 0.9 | 0.34 | 0.38 | 0.43 | modest shift with one of the compound 22-resistant clones | – | – | – | – | – | – |
